In test [1] the test system is N2a. Briefly: Cytotoxicity against mouse Neuro2a cells at 10 ug/mL. Format: functional, cell-based.
Test [2] can be described thus: Cytotoxicity against mouse Neuro2a cells. The format is functional, cell-based. Particulars: N2a.

These results are taken from ChEMBL document CHEMBL1146527, “The guineamides, novel cyclic depsipeptides from a Papua New Guinea collection of the marine cyanobacterium Lyngbya majuscula” (J Nat Prod, 2003).

Each structure is given as a SMILES string. pIC50: −log10 of the molar value. Calls of active or inactive are those of the source. The rule behind the calls is not given here.

With `CC[C@H]1NC(=O)c2csc(n2)[C@H](C)NC(=O)[C@H](Cc2ccccc2)N(C)C(=O)[C@H](C(C)C)N(C)C(=O)[C@H](C)OC(=O)[C@H]1C`, the result in test [1] was inactive.

For `CC1NC(=O)c2csc(n2)[C@H](C)NC(=O)[C@H](Cc2ccccc2)N(C)C(=O)[C@H](C(C)C)N(C)C(=O)[C@H](C(C)C)OC(=O)C1C` (stereo partly drawn) [GUINEAMIDE B], the pIC50 in test [2] is 4.82.

In turn, `C#CCCCC1NC(=O)[C@H](C)N(C)C(=O)[C@H](C(C)C)NC(=O)[C@H](Cc2ccc(OC)cc2)N(C)C(=O)C(C(C)CC)OC(=O)C1C` (stereo partly drawn) [GUINEAMIDE C] had a pIC50 in test [2] of 4.80.
